Data reported in EP4616862A1, “ANTIVIRAL C[…] DERIVED FROM NUCLEIC ACID AND PHARMACEUTICALLY ACCEPTABLE SALTS THEREOF” (priority 2022, dated 2024).
Like-named read-outs stand apart in the source and are kept apart here.

Legend:
[1] = test system: African Swine Fever Virus (ASFV, China/2018/AnhuiXCGQ); test: microbe, parasite or virus in culture; assay type: cell-based; conditions: for IC50: African swine fever virus
[2] = test system: Classical Swine Fever Virus (CSFV); test: microbe, parasite or virus in culture; assay type: cell-based; conditions: for IC50: Classical swine fever virus
[3] = test system: Low pathogenic avian influenza virus (LPAIV, H9N2); test: microbe, parasite or virus in culture; assay type: cell-based; conditions: for IC50: unidentified influenza virus, H9N2, MDCK
[4] = test system: Canine coronavirus (CCoV); test: microbe, parasite or virus in culture; assay type: cell-based
Canine adenovirus (CAV) = test: CAV infection inhibition in Vero cells (qPCR of viral DNA); assay type: cell-based; conditions: for SI (selectivity index): CC50/IC50; for IC50: Canine mastadenovirus A, Vero cell line
[5] = test system: Canine distemper virus (CDV); test: microbe, parasite or virus in culture; assay type: cell-based; conditions: for IC50: canine distemper virus, Vero
Feline parvovirus (FPV) = test: microbe, parasite or virus in culture; assay type: cell-based; conditions: for IC50: Feline parvovirus, CRFK
Feline Calicivirus (FCV) = test: microbe, parasite or virus in culture; assay type: cell-based; conditions: for IC50: Feline calicivirus, CRFK
FIPV = FIPV infection inhibition in FCWF-4 cells (RT-qPCR); assay type: cell-based, Feline Infectious peritonitis virus; conditions: for IC50: FCWF-4 cell line; for SI (selectivity index): CC50/IC50
[6] = test system: foot and mouth disease virus (FMDV); test: microbe, parasite or virus in culture; assay type: cell-based; conditions: for IC50: Foot-and-mouth disease virus
[7] = Cytotoxicity (CCoV example); assay type: cell-based, canine; conditions: Table 4 (CCoV), cell line for cytotoxicity not given
[8] = Cytotoxicity (CAV example); assay type: cell-based, monkey; conditions: Table 5 (CAV), cell line for cytotoxicity not given
[9] = Cytotoxicity (CDV example); assay type: cell-based, monkey; conditions: Table 6 (CDV), cell line for cytotoxicity not given
[10] = Cytotoxicity (FPV example); assay type: cell-based, feline; conditions: Table 7 (FPV), cell line for cytotoxicity not given
[11] = Cytotoxicity (FCV example); assay type: cell-based, feline; conditions: Table 8 (FCV), cell line for cytotoxicity not given
[12] = Cytotoxicity (FIPV example); assay type: cell-based, feline; conditions: Table 9 (FIPV), cell line for cytotoxicity not given
ISG15 = assay type: cell-based, Pig
Mx1 = assay type: cell-based, Pig
RNaseL = assay type: cell-based, Pig
in vitro [13] = test: in vitro
in vitro [14] = test: in vitro; remark: listed apart in the source
in vitro [15] = test: in vitro; remark: listed apart in the source
in vitro [16] = test: in vitro; remark: listed apart in the source
[17] = 48 h, read-out: IC50 (ASFV infection inhibition concentration)
[18] = PK-15, 48 h, read-out: IC50 (CSFV infection inhibition concentration)
[19] = 48 h, read-out: IC50 (LPAIV infection inhibition concentration)
[20] = Alphacoronavirus 1, A-72, 48 h, read-out: IC50 (CCoV infection inhibition concentration)
[21] = 48 h, CAV 100 TCID50/well, simultaneous treatment, 2 days, qPCR, read-out: IC50 (CAV infection inhibition concentration)
[22] = 72 h, read-out: IC50 (CDV infection inhibition concentration)
[23] = 48 h, read-out: IC50 (FPV infection inhibition concentration)
[24] = 24 h, read-out: IC50 (FCV infection inhibition concentration)
[25] = Alphacoronavirus 1, 48 h, FIPV 100 TCID50/well, simultaneous treatment, 2 days, RT-qPCR, read-out: IC50 (FIPV infection inhibition concentration)
[26] = BHK-21, 36 h, read-out: IC50 (FMDV infection inhibition concentration)

Row | Structure (SMILES) | SI (selectivity index) [1] | IC50 [1, 17] [µM] | SI (selectivity index) [2] | IC50 [2, 18] [µM] | IC50 [3, 19] [µM] | SI (selectivity index) [4] | IC50 [4, 20] [µM] | SI (selectivity index) (Canine adenovirus (CAV); CAV) | IC50 (Canine adenovirus (CAV); [21]) [µM] | SI (selectivity index) [5] | IC50 [5, 22] [µM] | SI (selectivity index) (Feline parvovirus (FPV)) | IC50 (Feline parvovirus (FPV); [23]) [µM] | SI (selectivity index) (Feline Calicivirus (FCV)) | IC50 (Feline Calicivirus (FCV); [24]) [µM] | IC50 (FIPV; [25]) [µM] | SI (selectivity index) (FIPV; FIPV) | Fold change (multiple increase compared to control group) ISG15 (ISG15) | Fold change (multiple increase compared to control group) Mx1 (Mx1) | Fold change (multiple increase compared to control group) RNaseL (RNaseL) | also measured
1 | Nc1nc2c(ncn2[C@@H](CO)OC(CO)CO)c(=O)[nH]1 [Acyclic diol-Guanosine, acyclic diol form of guanosine] | > 37.0 | < 270 | > 2.8 | < 3610 | < 1340 | > 4.5 | < 2240 | > 2.4 | < 4130 | > 4.7 | < 2120 | > 1.9 | < 530 | > 75.1 | < 133 | < 1510 | > 6.6 | 4.2 (±1.5) | 4.0 (±1.2) | 3.0 (±0.8) | SI (selectivity index) [6]: > 4.9; IC50 [6, 26]: < 2060 µM; CC50 ([7]; dog, a-72 cells): > 10000 µM; CC50 ([8]; monkey, vero cells): > 10000 µM; CC50 ([9]; monkey, vero cells): > 10000 µM; CC50 ([10]; cat, crfk cells): > 10000 µM; CC50 ([11]; cat, crfk cells): > 10000 µM; CC50 ([12]; cat, fcwf-4 cells): > 10000 µM; CC50 (in vitro [13]; pig, pam cells): > 10000 µM; CC50 (in vitro [14]; pig, pk15 cells): > 10000 µM; CC50 (in vitro [15]; dog, mdck): > 10000 µM; CC50 (in vitro [16]; hamster, bhk-21 cells): > 10000 µM
2 | O=c1[nH]cnc2c1ncn2[C@@H](CO)OC(CO)CO [Acyclic diol-Inosine, acyclic diol form of inosine] | > 28.3 | < 353 | > 5.7 | < 1750 | < 1810 | > 7.9 | < 1270 | > 5.6 | < 1780 | > 3.7 | < 2700 | > 5.4 | < 1870 | > 27.6 | < 362 | < 872 | > 11.5 | 6.3 (±0.4) | 2.8 (±0.9) | 2.0 (±0.3) | SI (selectivity index) [6]: > 8.3; IC50 [6, 26]: < 1200 µM; CC50 ([7]; dog, a-72 cells): > 10000 µM; CC50 ([8]; monkey, vero cells): > 10000 µM; CC50 ([9]; monkey, vero cells): > 10000 µM; CC50 ([10]; cat, crfk cells): > 10000 µM; CC50 ([11]; cat, crfk cells): > 10000 µM; CC50 ([12]; cat, fcwf-4 cells): > 10000 µM; CC50 (in vitro [13]; pig, pam cells): > 10000 µM; CC50 (in vitro [14]; pig, pk15 cells): > 10000 µM; CC50 (in vitro [15]; dog, mdck): > 10000 µM; CC50 (in vitro [16]; hamster, bhk-21 cells): > 10000 µM
3 | O=c1[nH]c(=O)c2ncn([C@@H](CO)OC(CO)CO)c2[nH]1 [Acyclic diol-Xanthosine, acyclic diol form of xanthosine] | > 8.6 | < 1160 | > 3.4 | < 2960 | < 2000 | > 3.8 | < 2600 | > 7.4 | < 1350 | > 4.9 | < 2050 | > 1.7 | < 5750 | > 64.5 | < 155 | < 1020 | > 9.8 | 4.7 (±1.3) | 2.7 (±1.4) | 1.7 (±0.3) | SI (selectivity index) [6]: > 5.0; IC50 [6, 26]: < 2000 µM; CC50 ([7]; dog, a-72 cells): > 10000 µM; CC50 ([8]; monkey, vero cells): > 10000 µM; CC50 ([9]; monkey, vero cells): > 10000 µM; CC50 ([10]; cat, crfk cells): > 10000 µM; CC50 ([11]; cat, crfk cells): > 10000 µM; CC50 ([12]; cat, fcwf-4 cells): > 10000 µM; CC50 (in vitro [13]; pig, pam cells): > 10000 µM; CC50 (in vitro [14]; pig, pk15 cells): > 10000 µM; CC50 (in vitro [15]; dog, mdck): > 10000 µM; CC50 (in vitro [16]; hamster, bhk-21 cells): > 10000 µM
4 | Nc1nc2c(ncn2[C@@H](C=O)O[C@@H](C=O)CO)c(=O)[nH]1 [Dialdehyde-Guanosine, dialdehyde form of guanosine] | > 75.9 | < 79 | > 36.1 | < 165 | < 102 | > 54.7 | < 110 | > 69.8 | < 85.9 | > 46.5 | < 129 | > 158 | < 38 | > 329.7 | < 18.2 | < 52.8 | > 113.7 | 4.7 (±0.3) | 3.5 (±0.7) | 2.5 (±0.1) | IC50 [1]: 79 µM; IC50 [3]: 102 µM; IC50 ([4]; Alphacoronavirus 1, A-72): 110 µM; IC50 (Canine adenovirus (CAV); CAV, read-out: IC50): 85.9 µM; IC50 (Feline Calicivirus (FCV)): 18.2 µM; SI (selectivity index) [6]: > 52.3; IC50 ([6]; BHK-21): 115 µM; IC50 [6, 26]: < 115 µM; CC50 ([7]; dog, a-72 cells): > 6000 µM; CC50 ([8]; monkey, vero cells): > 6000 µM; CC50 ([9]; monkey, vero cells): > 6000 µM; CC50 ([10]; cat, crfk cells): > 6000 µM; CC50 ([11]; cat, crfk cells): > 6000 µM; CC50 ([12]; cat, fcwf-4 cells): > 6000 µM; CC50 (in vitro [13]; pig, pam cells): > 6000 µM; CC50 (in vitro [14]; pig, pk15 cells): > 6000 µM; CC50 (in vitro [15]; dog, mdck): > 6000 µM; CC50 (in vitro [16]; hamster, bhk-21 cells): > 6000 µM
5 | O=C[C@@H](CO)O[C@H](C=O)n1cnc2c(=O)[nH]cnc21 [Dialdehyde-Inosine, dialdehyde form of inosine] | > 103.5 | < 96.6 | > 42.0 | < 238 | < 268 | > 221.7 | < 45.1 | > 30.7 | < 326 | > 93.9 | < 106 | > 192 | < 52 | > 384.6 | < 26 | < 45.5 | > 219.9 | 4.0 (±0.6) | 3.5 (±1.1) | 3.0 (±0.2) | SI (selectivity index) [3]: > 37.4; IC50 ([4]; Alphacoronavirus 1, A-72): 45.1 µM; IC50 (FIPV; Alphacoronavirus 1, FIPV, read-out: IC50): 45.5 µM; SI (selectivity index) [6]: > 22.9; IC50 [6, 26]: < 436 µM; CC50 [7]: > 10000 µM; CC50 [8]: > 10000 µM; CC50 [9]: > 10000 µM; CC50 [10]: > 10000 µM; CC50 [11]: > 10000 µM; CC50 [12]: > 10000 µM; CC50 (in vitro [13]): > 10000 µM; CC50 (in vitro [14]): > 10000 µM; CC50 (in vitro [15]): > 10000 µM; CC50 (in vitro [16]): > 10000 µM
6 | O=C[C@@H](CO)O[C@H](C=O)n1cnc2c(=O)[nH]c(=O)[nH]c21 [Dialdehyde-Xanthosine, dialdehyde form of xanthosine] | > 90.9 | < 110 | > 63.8 | < 157 | < 222 | > 232.6 | < 43 | > 77.2 | < 130 | > 125.1 | < 79.9 | > 258 | < 31 | > 398.0 | < 20.1 | < 55.1 | > 181.4 | 4.5 (±0.4) | 3.5 (±1.0) | 3.4 (±0.2) | IC50 ([2]; PK-15): 157 µM; SI (selectivity index) [3]: > 45.1; IC50 ([4]; Alphacoronavirus 1, A-72): 43 µM; IC50 [5]: 79.9 µM; IC50 (Feline parvovirus (FPV)): 31 µM; CC50 [7]: > 10000 µM; CC50 [8]: > 10000 µM; CC50 [9]: > 10000 µM; CC50 [10]: > 8000 µM; CC50 [11]: > 8000 µM; CC50 [12]: > 10000 µM; CC50 (in vitro [13]): > 10000 µM; CC50 (in vitro [14]): > 10000 µM; CC50 (in vitro [15]): > 10000 µM
